Values quoted from earlier work as cited in US20240156726A1, “MULTI-LAYER ORAL THIN FILM” (LTS LOHMANN THERAPIE-SYSTEME AG, priority 2021, published 2024).

Conditions: compared with (R)-ketamine

CNC1(c2ccccc2Cl)CCCCC1=O (racemic) [(S)-ketamine, (S)-(±)-2-(2-chlorophenyl)-2-(methylamino)cyclohexan-1-one]
analgesic and anaesthetic potency relative to the (R) form: approximately three times higher
